Data set [1] addresses UBE2W. Kind of data set: reporter assay of Huesken 2005. Particulars: siRNA.
Data set [2] has as its target UBE2S. Kind of data set: reporter assay of Huesken 2005. Particulars: siRNA.

Oligonucleotides are written 5' to 3', each unit as a sugar letter and its base; * is a phosphorothioate linkage, no mark a phosphodiester; rarer units and linkages stand in square brackets, end groups in braces. Plain capitals give the bases only. d = 2'-deoxy (DNA); r = 2'-OH (RNA)
Also: test concentration or dose not given here.

On to “sense rArArCrUrUrCrUrArUrUrUrArArArUrUrUrArGdTdT / antisense rCrUrArArArUrUrUrArArArUrArGrArArGrUrUdGdA”, for which the normalised inhibition (eCFP-eYFP dual reporter) in data set [1] was determined as 96.1%. The same measure, in the same setting: as for “sense rCrUrGrGrUrGrArArArArUrArUrUrCrCrUrGrUdTdT / antisense rArCrArGrGrArArUrArUrUrUrUrCrArCrCrArGdTdA”, the figure is 108%; as for “sense rUrGrArCrCrUrUrArArArUrGrArGrArArGrArGdTdT / antisense rCrUrCrUrUrCrUrCrArUrUrUrArArGrGrUrCrAdTdT”, 75%; as for “sense rGrCrGrCrUrCrUrCrArGrUrCrCrArArUrCrArGdTdT / antisense rCrUrGrArUrUrGrGrArCrUrGrArGrArGrCrGrCdTdG”, 109%. For the substance “sense rArUrGrGrArArGrGrUrGrCrArCrCrArGrGrUrAdTdT / antisense rUrArCrCrUrGrGrUrGrCrArCrCrUrUrCrCrArUdGdT”, the normalised inhibition (eCFP-eYFP dual reporter) in data set [1] worked out at 86.1%.

With “sense rArGrArArGrArCrUrGrGrUrCrCrCrCrArGrCrGdTdT / antisense rCrGrCrUrGrGrGrGrArCrCrArGrUrCrUrUrCrUdGdT”, in data set [1], the normalised inhibition (eCFP-eYFP dual reporter) was 88.4%. As for “sense rCrUrArUrUrUrArArArUrUrUrArGrUrArGrUrCdTdT / antisense rGrArCrUrArCrUrArArArUrUrUrArArArUrArGdAdA”, in data set [1], the normalised inhibition (eCFP-eYFP dual reporter) stood at 83.5%. On the same count and under the same terms, the result for “sense rUrCrCrArUrUrCrUrArArCrArGrArArGrArCrUdTdT / antisense rArGrUrCrUrUrCrUrGrUrUrArGrArArUrGrGrAdTdA” reads 64.1%; that for “sense rUrUrUrUrGrArCrUrCrUrCrCrUrCrArGrGrUrCdTdT / antisense rGrArCrCrUrGrArGrGrArGrArGrUrCrArArArAdGdG”, 95%. Still for that read-out and setting: the result for “sense rUrCrGrArUrArUrCrCrUrUrUrUrGrArCrUrCrUdTdT / antisense rArGrArGrUrCrArArArArGrGrArUrArUrCrGrAdCdT” reads 74.7%. Regarding “sense rUrArArCrArArGrArArUrCrCrArArArGrArArAdTdT / antisense rUrUrUrCrUrUrUrGrGrArUrUrCrUrUrGrUrUrAdCdA”, in data set [1], the normalised inhibition (eCFP-eYFP dual reporter) was 115%. On the same count and under the same terms, as for “sense rUrUrUrArCrUrGrGrUrGrArArArArUrArUrUrCdTdT / antisense rGrArArUrArUrUrUrUrCrArCrCrArGrUrArArAdCdA”, the figure is 91.2%. “sense rGrUrGrArArArArUrArUrUrCrCrUrGrUrUrCrAdTdT / antisense rUrGrArArCrArGrGrArArUrArUrUrUrUrCrArCdCdA”: the normalised inhibition (eCFP-eYFP dual reporter) in data set [1] was 82%. Same read-out and setting: as for “sense rCrArGrUrCrCrArArUrCrArGrUrUrUrGrUrCrUdTdT / antisense rArGrArCrArArArCrUrGrArUrUrGrGrArCrUrGdAdG”, the figure is 122%. Turning to “sense rArUrGrUrUrUrArUrArGrCrArArUrGrGrUrCrAdTdT / antisense rUrGrArCrCrArUrUrGrCrUrArUrArArArCrArUdGdA”, the normalised inhibition (eCFP-eYFP dual reporter) in data set [1] was 96.2%. On the same count and under the same terms, as for “sense rArCrUrGrGrUrCrCrCrCrArGrCrGrCrUrCrUrCdTdT / antisense rGrArGrArGrCrGrCrUrGrGrGrGrArCrCrArGrUdCdT”, the figure is 93.1%; as for “sense rArUrUrArGrCrArUrGrCrUrUrUrCrCrArGrCrUdTdT / antisense rArGrCrUrGrGrArArArGrCrArUrGrCrUrArArUdAdA”, 67.5%; as for “sense rArArUrUrArCrArCrArGrUrGrGrArUrUrGrUrAdTdT / antisense rUrArCrArArUrCrCrArCrUrGrUrGrUrArArUrUdGdA”, 112%. Still for that read-out and setting: as for “sense rCrArCrArGrUrGrGrArUrUrGrUrArGrArCrArUdTdT / antisense rArUrGrUrCrUrArCrArArUrCrCrArCrUrGrUrGdTdA”, the figure is 115%; as for “sense rArUrCrCrUrCrArUrGrUrUrUrArUrArGrCrArAdTdT / antisense rUrUrGrCrUrArUrArArArCrArUrGrArGrGrArUdGdA”, 104%. As for “sense rUrUrArArArUrUrUrArGrUrArGrUrCrGrArUrAdTdT / antisense rUrArUrCrGrArCrUrArCrUrArArArUrUrUrArAdAdT”, the normalised inhibition (eCFP-eYFP dual reporter) in data set [1] was found to be 79.9%.

For the substance “sense rGrArCrCrArCrCrGrGrArUrArArUrUrCrUrUrUdTdT / antisense rArArArGrArArUrUrArUrCrCrGrGrUrGrGrUrCdGdT”, the normalised inhibition (eCFP-eYFP dual reporter) in data set [1] worked out at 96.4%. For “sense rCrUrUrUrCrCrArGrCrUrGrCrArArGrGrArArAdTdT / antisense rUrUrUrCrCrUrUrGrCrArGrCrUrGrGrArArArGdCdA”, in data set [1], the normalised inhibition (eCFP-eYFP dual reporter) amounted to 103%. For the substance “sense rArCrArCrArGrUrGrGrArUrUrGrUrArGrArCrAdTdT / antisense rUrGrUrCrUrArCrArArUrCrCrArCrUrGrUrGrUdAdA”, the normalised inhibition (eCFP-eYFP dual reporter) in data set [1] turned out to be 99.3%. With “sense rGrArGrArArGrArGrUrGrUrUrCrArArArArUrUdTdT / antisense rArArUrUrUrUrGrArArCrArCrUrCrUrUrCrUrCdAdT”, the normalised inhibition (eCFP-eYFP dual reporter) in data set [1] came out at 116%. With “sense rArCrCrArCrCrGrGrArUrArArUrUrCrUrUrUrUdTdT / antisense rArArArArGrArArUrUrArUrCrCrGrGrUrGrGrUdCdG”, in data set [1], the normalised inhibition (eCFP-eYFP dual reporter) is 96.7%. On the same count and under the same terms, as for “sense rArUrCrUrGrUrUrUrArUrCrCrArUrUrCrUrArAdTdT / antisense rUrUrArGrArArUrGrGrArUrArArArCrArGrArUdAdT”, the figure is 96.6%. Still for that read-out and setting: the result for “sense rArUrGrArCrCrUrUrArArArUrGrArGrArArGrAdTdT / antisense rUrCrUrUrCrUrCrArUrUrUrArArGrGrUrCrArUdTdC” reads 68.9%; that for “sense rUrUrCrCrUrGrUrUrCrArUrCrCrUrCrArUrGrUdTdT / antisense rArCrArUrGrArGrGrArUrGrArArCrArGrGrArAdTdA”, 73%. Still for that read-out and setting: as for “sense rArArGrArGrArCrGrArCrCrArCrCrGrGrArUrAdTdT / antisense rUrArUrCrCrGrGrUrGrGrUrCrGrUrCrUrCrUrUdTdT”, the figure is 82.7%. For the substance “sense rUrCrUrArArCrArGrArArGrArCrUrGrGrUrCrCdTdT / antisense rGrGrArCrCrArGrUrCrUrUrCrUrGrUrUrArGrAdAdT”, the normalised inhibition (eCFP-eYFP dual reporter) in data set [1] was 73.3%. “sense rGrArGrGrArGrUrArUrGrCrArGrCrUrCrGrGrGdTdT / antisense rCrCrCrGrArGrCrUrGrCrArUrArCrUrCrCrUrCdGdT”: the normalised inhibition (eCFP-eYFP dual reporter) in data set [2] was 56.7%. The same measure, in the same setting: the result for “sense rGrCrCrUrCrCrCrCrArCrCrCrArArGrGrGrCrUdTdT / antisense rArGrCrCrCrUrUrGrGrGrUrGrGrGrGrArGrGrCdAdG” reads 46.3%; that for “sense rArArGrArUrCrUrUrCrCrArCrCrCrGrArArCrGdTdT / antisense rCrGrUrUrCrGrGrGrUrGrGrArArGrArUrCrUrUdGdG”, 60.4%. On the same count and under the same terms, as for “sense rGrGrGrGrCrUrGrArGrGrGrUrCrCrCrArUrGrGdTdT / antisense rCrCrArUrGrGrGrArCrCrCrUrCrArGrCrCrCrCdTdC”, the figure is 42.8%.

(Values after the OligoGym collection.)
